We go through 1 molecule from patent publication US5023257A, “Intramuscular injection forms of gyrase inhibitors” (Bayer Aktiengesellschaft, priority 1988, dated 1991).

The data set is described as follows: release of the active compound from intramuscular suspensions. To be noted: oily suspensions, water-soluble form (hydrochlorides, lactates, mesilates and other salts), particularly with interfacially surface active materials.

As for `O=C(O)c1cn(C2CC2)c2cc(N3CCNCC3)c(F)cc2c1=O` [ciprofloxacin], the “release of the active compound” value is “very rapidly”.
